Experimental findings from patent US10385057B2, “Pyrazole compounds and methods of making and using same” (Lundbeck La Jolla Research Center, Inc., priority 2015, dated 2019) are described below.

Common to all, as to format: biochemical
In assay [1] the target is T1, MAGL (Mus musculus, UniProt O35678).
T1 construct: mouse brain membrane fraction or cell lysates for mouse assays; from tissue
T1 sequence (O35678 1-303): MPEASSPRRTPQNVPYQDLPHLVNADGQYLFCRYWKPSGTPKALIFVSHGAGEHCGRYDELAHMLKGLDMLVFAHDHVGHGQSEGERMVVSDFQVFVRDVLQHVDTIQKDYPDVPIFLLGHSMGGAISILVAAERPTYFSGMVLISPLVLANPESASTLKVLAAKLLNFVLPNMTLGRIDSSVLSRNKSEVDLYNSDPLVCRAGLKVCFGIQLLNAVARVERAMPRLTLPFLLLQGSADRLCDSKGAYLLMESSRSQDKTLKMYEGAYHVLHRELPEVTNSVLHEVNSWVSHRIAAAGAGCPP
Briefly: In vitro competitive activity-based protein profiling, mouse MAGL. As to conditions: 1 μM, read-out: MAGL % inh. 1 μM (mouse). In a few lines:
(§1)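 Mouse brain membranes or cell lysates (mouse) and human prefrontal cortex or cell membrane fractions (human), 1.0 mg/mL protein, preincubated with inhibitor 30 min at 37 °C, then FP-Rh or HT-01 probe 30 min at 37 °C. SDS-PAGE; MAGL and FAAH activity from in-gel fluorescence band intensity.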

The target in assay [2] is T2, FAAH (Mus musculus, UniProt O08914).
T2 construct: mouse brain membrane fraction or cell lysates for mouse assays; from tissue
T2 sequence (O08914 1-579): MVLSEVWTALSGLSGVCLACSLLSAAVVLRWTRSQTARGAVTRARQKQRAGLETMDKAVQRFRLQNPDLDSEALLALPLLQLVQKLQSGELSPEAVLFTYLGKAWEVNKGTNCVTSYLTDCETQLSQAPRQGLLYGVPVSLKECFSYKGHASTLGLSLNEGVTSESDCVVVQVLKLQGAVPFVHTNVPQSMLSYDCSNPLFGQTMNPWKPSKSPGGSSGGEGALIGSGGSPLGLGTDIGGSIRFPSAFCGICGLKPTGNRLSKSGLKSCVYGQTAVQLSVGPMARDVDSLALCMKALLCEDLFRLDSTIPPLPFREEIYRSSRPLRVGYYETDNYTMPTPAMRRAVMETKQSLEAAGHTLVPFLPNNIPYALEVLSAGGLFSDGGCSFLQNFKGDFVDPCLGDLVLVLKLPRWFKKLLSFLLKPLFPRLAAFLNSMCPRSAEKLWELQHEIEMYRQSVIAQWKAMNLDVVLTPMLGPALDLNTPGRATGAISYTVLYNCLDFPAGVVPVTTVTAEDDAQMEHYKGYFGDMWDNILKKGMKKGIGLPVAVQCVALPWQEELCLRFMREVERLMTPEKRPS
In words: In vitro competitive activity-based protein profiling, mouse FAAH. As to conditions: 1 μM, read-out: FAAH % inh. 1 μM (mouse). In outline:
as §1

For assay [3], the target named is T3, FAAH (Homo sapiens, UniProt O00519).
T3 construct: human prefrontal cortex or cell membrane fractions for human assays; from tissue
T3 sequence (O00519 1-579): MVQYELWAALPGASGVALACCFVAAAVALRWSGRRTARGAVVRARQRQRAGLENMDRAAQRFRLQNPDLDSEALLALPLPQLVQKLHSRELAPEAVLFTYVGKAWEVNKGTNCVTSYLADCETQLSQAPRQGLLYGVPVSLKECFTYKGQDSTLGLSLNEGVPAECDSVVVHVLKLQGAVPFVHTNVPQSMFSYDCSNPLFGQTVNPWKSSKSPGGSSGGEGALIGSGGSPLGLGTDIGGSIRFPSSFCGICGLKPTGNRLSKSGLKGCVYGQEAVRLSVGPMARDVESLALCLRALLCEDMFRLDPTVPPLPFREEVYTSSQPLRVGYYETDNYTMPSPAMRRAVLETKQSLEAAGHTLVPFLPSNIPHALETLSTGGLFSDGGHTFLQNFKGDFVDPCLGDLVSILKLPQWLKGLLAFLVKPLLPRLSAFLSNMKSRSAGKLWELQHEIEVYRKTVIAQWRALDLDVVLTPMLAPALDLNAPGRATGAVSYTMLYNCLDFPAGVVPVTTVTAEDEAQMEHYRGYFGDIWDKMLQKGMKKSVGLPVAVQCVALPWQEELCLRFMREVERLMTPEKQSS
Briefly: In vitro competitive activity-based protein profiling, human FAAH. As to conditions: for inhibition at 1 µM: read-out: FAAH % inh. 1 μM (human); for inhibition at 10 µM: read-out: FAAH % inh. 10 μM (human). As for the experimental part: (§2) In Vitro Competitive Activity-Based Protein Profiling.
(§3) Proteomes (mouse brain membrane fraction or cell lysates for mouse assays; human prefrontal cortex or cell membrane fractions for human assays) (50 μL, 1.0 mg/mL total protein concentration) were preincubated with varying concentrations of inhibitors at 37° C. After 30 min, FP-Rh or HT-01 (1.0 μL, 50 μM in DMSO) was added and the mixture was incubated for another 30 min at 37° C. Reactions were quenched with SDS loading buffer (15 μL—4×) and run on SDS-PAGE. Following gel imaging, serine hydrolase activity was determined by measuring fluorescent intensity of gel bands corresponding to MAGL and FAAH using ImageJ 1.43u software.

In assay [4] the target is T4, MAGL (Homo sapiens, UniProt Q99685).
T4 construct: human prefrontal cortex or cell membrane fractions for human assays; from tissue
T4 sequence (Q99685 1-303): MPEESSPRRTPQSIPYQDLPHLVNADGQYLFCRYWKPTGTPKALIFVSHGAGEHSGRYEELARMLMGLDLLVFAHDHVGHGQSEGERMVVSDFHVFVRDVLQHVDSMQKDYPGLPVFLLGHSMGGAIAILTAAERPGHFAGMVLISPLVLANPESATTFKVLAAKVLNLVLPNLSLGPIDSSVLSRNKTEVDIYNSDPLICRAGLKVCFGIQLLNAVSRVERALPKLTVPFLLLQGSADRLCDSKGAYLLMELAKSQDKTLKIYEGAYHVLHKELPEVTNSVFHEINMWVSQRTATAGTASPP
Briefly: In vitro competitive activity-based protein profiling, human MAGL. As to conditions: for inhibition at 1 µM: read-out: MAGL % inh. 1 μM (human); for inhibition at 10 µM: read-out: MAGL % inh. 10 μM (human). As for the experimental part:
as §2, §3

`O=C(O)c1cnn(C(=O)N2CC3CN(Cc4cc(Cl)ccc4C(F)(F)F)CC3C2)c1` (stereo not drawn) [Example 196, 1-(5-(5-chloro-2-(trifluoromethyl)benzyl)octahydropyrrolo[3,4-c]pyrrole-2-carbonyl)-1H-pyrazole-4-carboxylic acid]: the inhibition at 1 µM in assay [1] was 0 to 25%; in assay [2], at least 75%; in assay [3] it was at least 75%; in assay [4], 0 to 25%. The inhibition at 10 µM in assay [3] and in assay [4] was at least 75% throughout.
For `O=C(O)c1cnn(C(=O)N2CCC3(CCN(Cc4ccc(Cl)cc4)C3)C2)c1` (stereo not drawn) [Example 48, 1-(7-(4-chlorobenzyl)-2,7-diazaspiro[4.4]nonane-2-carbonyl)-1H-pyrazole-4-carboxylic acid], the inhibition at 1 µM was 0 to 25% in assay [1] and at least 75% in assay [2]. For the same compound, the results for the inhibition at 10 µM in assay [3] and in assay [4] were 0 to 25% and at least 75%, respectively.
With `NC(=O)c1cnn(C(=O)N2CCC3(CCN(Cc4cc(N5CCOCC5)cc(C(F)(F)F)c4)C3)C2)c1` (stereo not drawn) [Example 210, 1-(7-(3-morpholino-5-(trifluoromethyl)benzyl)-2,7-diazaspiro[4.4]nonane-2-carbonyl)-1H-pyrazole-4-carboxamide], the inhibition at 1 µM was 0 to 25% in assay [1], at least 75% in assay [2], at least 75% in assay [3] and at least 75% in assay [4].
Take `O=C(O)c1cnn(C(=O)N2CC3CN(Cc4ccc(N5CCCC5)cc4C(F)(F)F)CC3C2)c1` (stereo not drawn) [Example 197, 1-(5-(4-(pyrrolidin-1-yl)-2-(trifluoromethyl)benzyl)octahydropyrrolo[3,4-c]pyrrole-2-carbonyl)-1H-pyrazole-4-carboxylic acid]: the inhibition at 1 µM in assay [1] is 0 to 25%; in assay [2], at least 75%; in assay [3], at least 75%; in assay [4] it was 0 to 25%. For the same compound, the inhibition at 10 µM in assay [3] and in assay [4] was at least 75% in each case.
Consider `O=C(O)c1cnn(C(=O)N2CC3CN(Cc4ccc(C(F)(F)F)cc4)CC3C2)c1` (stereo not drawn) [Example 47, 1-(5-(4-(trifluoromethyl)benzyl)octahydropyrrolo[3,4-c]pyrrole-2-carbonyl)-1H-pyrazole-4-carboxylic acid], for which the inhibition at 1 µM is 0 to 25% in assay [1] and at least 75% in assay [2]. Also, the inhibition at 10 µM was 50 to 75% in assay [3] and at least 75% in assay [4].
